US6906108B2, “Extracts of vetiver oil as repellent and toxicant to ants, ticks, and cockroaches” (Board of Supervisors of Louisiana State University and …, priority 2001, dated 2005)

Tests used:
Assay type in all cases: in vivo
[1] = system: cat fleas (Ctenocephalides felis (Bouche)); assay: Cat flea Petri dish filter paper bioassay (repellency and mortality); settings: 2.76 mg per dish
Method: To test the effectiveness of nootkatone against fleas, cat fleas (Ctenocephalides felis (Bouche)) were collected from a flea colony at St. Gabriel, La.
Petri dishes (5 cm diameter and 1 cm height) were prepared by lining one half of the top and the bottom with a half circle of filter paper (55 mm), and lining the other half with a second half circle of filter paper. For the treated Petri dishes, 50 mg nootkatone or 100 mg REPEL® were dissolved in 0.5 ml ethanol. […] Ten replicate Petri dishes were used for each of the treatments. The ethanol solution was added to the filter paper on the top and bottom and dried for 10 min. To place the fleas in the Petri dishes, fleas were temporarily immobilized by placing them at −20° C. for 5 min. The number of fleas in each Petri dish varied: for the 10 control Petri dishes, the average number in each dish was 10.2, with a range of 4 to 23; for 0.2 mg nootkatone, the average number in each dish was 8.5, with a range of 5 to 18; for 1 mg nootkatone, the average number in each dish was 10.6, with a range of 6 to 21; for 2 mg nootkatone, the average number in each dish was 11.1, with a range of 9 to 15 (Fleas could be counted in only 9 Petri dishes; one had too many fleas to count); and for 2.76 mg Deet, the average number in each dish was 6.7, with a range of 5 to 9.
The number of fleas on each side of each Petri dish was counted at 1 hr, 2 hr, 3 hr, 4 hr, 24 hr, 48 hr, 72 hr, and 96 hr.

[2] = system: German cockroaches (Blattella germanica); assay: German cockroach Petri dish filter paper bioassay (repellency and toxicity)
Method: To test the efficacy of nootkatone against cockroaches, German cockroaches (Blattella germanica) were collected at Baton Rouge, La., the same day as the bioassay was begun.
For the bioassay, Petri dishes (10 cm diameter×1 cm) were used. The Petri dishes were prepared by lining one half of the top and one half of the bottom with a half circle of filter paper (125 mm), and lining the other half with a second half circle of filter paper. For the treated Petri dishes, 50 mg nootkatone and 300 mg REPEL® were dissolved in 2.0 ml ethanol. To each Petri dish was added either ethanol only, 30 mg Deet, 1 mg nootkatone, or 10 mg nootkatone. Ten replicate Petri dishes were used for each of the treatments. The ethanol solution was added to the filter paper on the top and bottom and dried for 10 min. One cockroach was added to each Petri dish. The length of the cockroaches varied from 1 to 1.5 cm. The dishes were then observed at 15 min, 30 min, 1 hr, 2 hr, 3 hr, 4 hr, 5 hr, 24 hr, 48 hr, and 120 hr.

[3] = system: ticks (Ixodes scapularis); assay: Tick Petri dish bioassay with treated sand (repellency and toxicity); settings: 2.75 mg/dish
Method: To test the effectiveness of nootkatone against ticks, ticks (Ixodes scapularis) were collected from Idlewild, La. Nootkatone efficiacy was tested relative to a known repellent, N,N-diethyl-m-toluamide (“Deet”). REPEL®, which contains 27.55% Deet, was purchased locally from a retail garden store.
The bioassay was conducted using Petri dishes (5 cm diameter and 1 cm height). To ensure adequate moisture for the ticks, 1 ml of a hot agar solution (1.5% in H2O) was spread evenly on the inside surfaces of the Petri dish, including the top, bottom, and edges. After the agar cooled, sand that was treated as described below was spread evenly on the inside surfaces of the Petri dish. The sand was held in place by the agar.
For the treated sand, either 2 mg nootkatone or 100 mg REPEL® was initially dissolved in 2 ml ethanol, and then 200 μl of the solution was mixed with 2 g sand that had been autoclaved and cooled. The control was autoclaved sand with 200 μl ethanol only added. One half of the surfaces in the Petri dishes were covered with 2 g treated sand, and the other half with 2 g untreated sand. In the nootkatone-treated Petri dishes, the final concentration was 200 μg/dish; while in the Deet treated Petri dishes, the final concentration was 2.75 mg/dish. Control Petri dishes were prepared by covering all sides with untreated sand. One tick was added to each Petri dish, and the top replaced. The number of replicates were as follows: control, 6; nootkatone, 9; and Deet, 8. […] Repellent activity was noted if the tick was found on the untreated side of the Petri dish. The ticks in the control Petri dishes were randomly distributed on the left and right sides.
The above experiment was repeated with ticks (Ix. scapularis) collected from Hammond, La. The number of replicates in this experiment were as follows: controls, 8; nootkatone, 10; and Deet, 8.

[4] = 8 replicates, ticks from Hammond

## CCN(CC)C(=O)c1cccc(C)c1 [Deet, N,N-diethyl-m-toluamide, reference compound]
[1]
  Overall activity against fleas: effective as both a repellent and a toxicant
[1]; first observation (1 hr)
  Repellent activity against fleas: showed repellent activity
[2]; 30 mg per dish
  Repellent activity against the cockroaches: no significant repellent activity
[2]; 30 mg per dish, 30 min
  Percent Repellency: 50%
[2]; 30 mg per dish, 1 hr
  Percent Repellency: 40%
[2]; 30 mg per dish, 2 hr
  Percent Repellency: 70%
[2]; 30 mg per dish, 3 hr
  Percent Repellency: 50%
[2]; 30 mg per dish, 4 hr
  Percent Repellency: 60%
[2]; 30 mg per dish, 5 hr
  Percent Repellency: 70%
[2]; 30 mg per dish, 24 hr
  Percent Repellency: 38%
[2]; 30 mg per dish, 48 hr
  Percent Repellency: 43%
[2]; 30 mg per dish, 120 hr
  Percent Repellency: 50%
[2]; any of the treatments (30 mg Deet; 1 mg or 10 mg nootkatone), up to 120 hr
  Number of cockroach deaths compared with the control: not significantly different from the control
[3]; [4]
  Petri dishes that lost the repellent activity after 96 hr: one
  Ticks dead at 24 hr (number): one
  Ticks dead at 72 hr (number): one
  Ticks dead at 96 hr (number): four
[3]; 8 replicates, ticks from Idlewild
  Petri dishes that had lost the repellent activity after 90 hr: three
[3]; ticks from Hammond
  Ticks dead at 96 hr (percent): 50%
[3]; ticks from Idlewild
  Ticks dead after 90 hr: No ticks
